Calls of active or inactive are those of the source. The rule behind the calls is not given here.
What was measured:
[1] = tested on: HUVEC; experiment: Cell cycle arrest at G1 phase in HUVEC at 1 uM in presence of 50 uM guanosine; type: functional, Homo sapiens
[2] = tested on: Jurkat; experiment: Antiproliferative activity against Jurkat T cells as measured by [3H]thymidine incorporation; type: functional, cell-based; conditions: Homo sapiens
[3] = tested on: HUVEC; experiment: Cell cycle arrest at S phase in HUVEC at 1 uM; type: functional; conditions: Homo sapiens
[4] = tested on: HUVEC; experiment: Antiproliferative activity against HUVEC in presence of 20 uM guanine as measured by [3H]thymidine incorporation; type: functional, cell-based; conditions: Homo sapiens
[5] = tested on: HUVEC; experiment: Cell cycle arrest at G1 phase in HUVEC at 1 uM; type: functional; conditions: Homo sapiens
[6] = tested on: HUVEC; experiment: Antiproliferative activity against HUVEC as measured by [3H]thymidine incorporation; type: functional, cell-based; conditions: Homo sapiens
[7] = tested on: HUVEC; experiment: Cell cycle arrest at G2/M phase in HUVEC at 1 uM in presence of 50 uM guanosine; type: functional, Homo sapiens
[8] = tested on: Mus musculus; experiment: Antiangiogenic activity in mouse at 60 mg/kg/day, sc; type: functional; conditions: route subcutaneous
[9] = tested on: HUVEC; experiment: Cell cycle arrest at G2/M phase in HUVEC at 1 uM; type: functional; conditions: Homo sapiens
[10] = organism: Mus musculus; experiment: Inhibition of tumor-induced angiogenesis in RENCA mouse model; type: functional, organism-based
[11] = tested on: HUVEC; experiment: Cell cycle arrest at S phase in HUVEC at 1 uM in presence of 50 uM guanosine; type: functional, Homo sapiens
[12] = tested on: Jurkat; experiment: Antiproliferative activity against Jurkat T cells in presence of 20 uM guanine as measured by [3H]thymidine incorporation; type: functional, cell-based; conditions: Homo sapiens

IC50 [2]: 128 nM
SMILES: COc1c(C)c2c(c(O)c1C/C=C(\C)CCC(=O)O)C(=O)OC2 [MYCOPHENOLIC ACID]
Inhibition [1]: 71%
inhibition at 1 µM [3]: 6.5%
Activity [4]: inactive
inhibition at 1 µM [5]: 81%
IC50 [6]: 99.2 nM
Inhibition [7]: 17%
inhibition in vivo at 60 mg/kg/day [8]: 69%
inhibition at 1 µM [9]: 12.4%
inhibition [10]: Dose-dependent effect
Inhibition [11]: 11.8%
Activity [12]: inactive

Reference: ChEMBL document CHEMBL1147653, “Identification of type 1 inosine monophosphate dehydrogenase as an antiangiogenic drug target” (J Med Chem, 2006)
